Entries after “also recorded” stand apart in the source; their conditions may differ.
How the values were obtained:
E. coli ΔtolC-pore = assay: Time-kill assay; type: cell-based
Description: As Lgt is found at the inner membrane of Gram-negative bacteria, we sought to rule out physical perturbation of the membrane as the cause of the antibacterial activity observed for MAC-0452936. […] To that end, we treated both non-growing E. coli ΔtolC-pore in a nutrient-deplete medium (PBS) and actively growing E. coli ΔtolC-pore in a nutrient-replete medium (LB) with varying concentrations of MAC-0452936 and enumerated colony-forming units (CFUs) at different time points (Figure S9A). […] Indeed, MAC-0452936 reduced the bacterial counts of E. coli ΔtolC-pore to the limit of detection after 6 h at compound concentrations greater than 2 μg/mL. We then tested MAC-0452936 for hemolytic activity against human-derived red blood cells and cytotoxicity against HEK-293 cells. […] However, we did observe a modest decrease in the viability of HEK-293 cells when treated with concentrations of MAC-0452936 greater than 8 μg/mL.
E. coli ΔtolC-pore was grown overnight in LB broth. For killing in nutrient-deplete media, overnight culture was pelleted by centrifugation at 5,000g for 30 min, and resuspended in sterile PBS buffer. Cells in PBS were added to a microwell plate containing different concentrations of MAC-0452936 (100 μL final volume), and incubated for the specified time at 37°C with shaking. At the specified time points, cultures were pelleted by centrifugation 5,000g for 30 min at 4°C, then 10-fold serially diluted in PBS before being plated on LB agar for CFU enumeration. For killing of actively growing cells in nutrient replete media, overnight culture of E. coli ΔtolC-pore was diluted 1/1000 into fresh LB broth and grown at 37°C with shaking to the early-log phase of growth (∼2.5 h, OD600 ∼0.2). Cells in LB broth were then added to a microwell plate containing different concentrations of MAC-0452936 (100 μL final volume), and incubated for the specified time at 37°C with shaking. At the specified time points, cultures were pelleted by centrifugation 5,000g for 30 min at 4°C, then 10-fold serially diluted in PBS before being plated on LB agar for CFU enumeration.

[1] = tested on: E. coli ΔtolC-pore harboring the lgt expression plasmid pCHAP9231; assay: Ectopic lgt expression MIC (high-copy suppression, pCHAP9231); type: cell-based; details: pCHAP9231, 0.4% arabinose, LB
HEK293t cells = assay: In vitro cytotoxicity (PrestoBlue cell viability); type: cell-based, human; details: 24 h
Protocol: To determine the haemolytic activity and cytotoxicity of MAC-0452936, pooled human blood and HEK293t cells were used, respectively. Fresh pooled human blood for haemolytic assay was acquired from […] Technologies, whilst, HEK293t cells were originally acquired from ATCC (Cat# CRL-3216) and were regularly grown in […] (DMEM) with 10% fetal bovine serum (FBS), L-glutamine and incubated at 37°C. Cell lines are regularly tested for mycoplasma contamination.
The cytotoxicity of MAC-0452936 on HEK293t cells was determined by performing a cell viability assay using PrestoBlue Cell Viability Reagent (Invitrogen). 3 × 10^4 cells/mL were seeded in tissue culture-treated 96-well plates (Nunc; white opaque with clear bottom) in […] (DMEM) with 10% fetal bovine serum (FBS), L-glutamine and incubated at 37°C for 24 h in 5% CO2. The cells were then treated with varying concentrations of MAC-0452936 and similar percentage of DMSO as in drug (solvent control) for 24 h at 37°C. PrestoBlue reagent (20 μL) was added to the wells and incubated for 1 h in the CO2 incubator before reading the plates at excitation/emission wavelength of 560/590 nm on the Biotek Synergy Neo2 plate reader. Fluorescence values were expressed as percentage and inhibition with respect to solvent control was calculated.

[2] = tested on: E. coli ΔlgtΔtolC-pore pCHAP9231; assay: MIC with arabinose-titrated lgt expression; type: cell-based; details: lgt expression driven solely by arabinose from pCHAP9231
Description: We next turned to genetic approaches to confirm the mechanism of action of MAC-0452936. […] To that end, we screened the E. coli CRISPRi collection in the ΔtolC-pore genetic background with a sub-inhibitory concentration of MAC-0452936 and measured the fitness of all 356 CRISPRi mutants (Figure 4C and Data S4). […] Depletion of Lgt by CRISPRi provided supporting evidence that MAC-0452936 targeted Lgt in E. coli; however, we sought to confirm this observation using a parallel genetic approach. We hypothesized that MAC-0452936 potency would also be affected by high-copy expression of lgt. To that end, we introduced either an arabinose inducible copy of lgt supplied on the pCHAP9231 plasmid[48] or the pBAD19s plasmid as a control into E. coli ΔtolC-pore and tested the potency of MAC-0452936 (Figure 4E). Induction of lgt expression with arabinose suppressed the activity of MAC-0452936 by about 8-fold. […] To test this hypothesis, we constructed E. coli ΔlgtΔtolC-pore with pCHAP9231[48] so that lgt expression was driven solely by arabinose from the plasmid. […] To test this observation with MAC-0452936, we introduced an lpp deletion into our screening strain E. coli ΔtolC-pore and assessed the activity of our Lgt inhibitor in this mutant background. […]

Q: Which results are given for COc1ccc(C(=O)O/N=C(\c2cccs2)C(C)(C)C)cc1 [MAC-0452936, (Z)-2-Pivaloylthiophene O-(4-methoxybenzoyl) oxime]?
A: compound concentrations that reduced bacterial counts to the limit of detection (E. coli ΔtolC-pore; LB, after 6 h): greater than 2 μg/mL; killing of non-growing bacteria (E. coli ΔtolC-pore; nutrient-deplete medium (PBS), CFU): could not kill non-growing bacteria; killing of actively growing bacteria (E. coli ΔtolC-pore; nutrient-replete medium (LB), CFU): potent bactericidal activity; suppression of activity by induction of lgt expression with arabinose [1]: about 8 fold; concentrations giving a modest decrease in the viability of HEK-293 cells (HEK293t cells): greater than 8 μg/mL; cytotoxicity to HEK-293 cells (HEK293t cells; at MIC concentrations): did not observe; change of MIC with increasing arabinose concentrations [2]: dose-dependent increase in the MIC; also recorded: increase with increasing
